Experimental data as given in US20250161273A1, “PHARMACEUTICAL COMPOSITION COMPRISING DIPHENYLDIAZOLE DERIVATIVES AND METHODS OF USE” (MODAG GMBH, priority 2022, published 2025).
Where two headings read alike, the source gives them in different places.

Assay: phase 1 study in patients with mild to moderate Parkinson's disease (PK, safety)
Format: in vivo, human
Settings: for AR AUC (accumulation ratio, geometric mean): AUC(0-tau); for Frel AUC(0-24) / Frel Cmax: Day 9 fed vs Day 7 QD fasted; for concentration at 3 h: po; for Cmax / Tmax / AUC / concentration at 24 h / Tmax at 7 days / half-life at 7 days / half-life / AUC(0-t) / concentration at 12 h / AUC(0-inf): oral; for Cmax: read-out: Cmax (geometric mean); for AUC: read-out: AUC(0-tau) (geometric mean); for AUC(0-inf): read-out: AUC(0-inf) (geometric mean)
Description: Study Title: A Single Part Study to Assess the Safety, Tolerability, Pharmacokinetics and Pharmacodynamics of Multiple Ascending Oral Doses of anle138b, and to Characterize the Effect of Food on the Pharmacokinetics of anle138b in Patients with Mild to Moderate Parkinson's Disease.
This was a two-center, double-blind, randomised, placebo-controlled study that enrolled twenty two (22) participants in cohorts (i.e. regimens) A-C. All completed the study per protocol. After completion of Cohorts A to C it was decided to add Cohorts D and E of 24 subjects. Cohort D expanded sample size of previous dosing regiments 150 mg and 300 mg QD and Cohort E administration of anle138b 300 mg for 28 days, under non fasted conditions.
Drug product used is described in section 1.3, supra, placebo was vehicle in capsule. Subjects were between 50 and 80 years of age with a diagnosis of idiopathic PD as defined by the Movement Disorders Society criteria (either fulfilling criteria for “Clinically Established PD” or for “Clinically Probable PD”). They had to present with Hoehn and Yahr stage I-III (i.e. able to walk unaided), and stable medication for PD for 1 month prior to inclusion and anticipated over the study period. The subjects were randomly assigned to receive one of three drug regimens, A, B or C, as follows: • Regimen A—150 mg (5×30 mg) anle138b oral capsules or matching placebo QD, for 7 consecutive days in the fasted state, followed by a single administration of 150 mg anle138b oral capsule or matching placebo on Day 9 in the fed state, • Regimen B—300 mg (10×30 mg) anle138b oral capsules or matching placebo QD, for 7 consecutive days in the fasted state, followed by a single administration of 300 mg anle138b oral capsule (10×30 mg capsules) or matching placebo on Day 9 in the fed state, • Regimen C—150 mg (5×30 mg) anle138b oral capsules or matching placebo BID (total 300 mg daily), […]
Primary endpoints provided safety and tolerability information for the test product by assessing: AEs, vital signs, ECGs, physical examinations and laboratory safety tests, and to provide additional safety and tolerability information for the test product taken also in the fed state by assessing: AEs, vital signs, ECGs, physical examinations and laboratory safety tests.
Secondary endpoints provided PK information for the test product in PD patients by assessing plasma exposure under fast and fed conditions.

[1] = PD patients, Regimen A 150 mg, Day 1, fasted
[2] = PD patients, Regimen B 300 mg, Day 1, fasted

**Q.** What does the source list for `Brc1cccc(-c2cc(-c3ccc4c(c3)OCO4)n[nH]2)c1` [anle138b, 3-(1,3-benzodioxol-5-yl)-5-(3-bromophenyl)-1H-pyrazole]?
**A.** AR Cmax (accumulation ratio, geometric mean) (PD patients, Regimen A 150 mg QD, Day 7): 0.346; AR AUC (accumulation ratio, geometric mean) (PD patients, Regimen A 150 mg QD, Day 7, tau 24 h): 0.371; T1/2, individual subject values (PD patients, Regimen A 150 mg QD, Day 7, n = 2): 16.25 h; maximum individual AUC(0-24) as % of the exposure limit in the protocol [1]: ~6.19%; maximum individual Cmax as % of the exposure limit in the protocol [1]: approximately 24.9%; Frel AUC(0-24) (PD patients, Regimen A 150 mg): 132%; Frel Cmax (PD patients, Regimen A 150 mg): 104%; Tmax (median) (PD patients, Regimen B 300 mg QD (row prints fed, title fasted state), Day 7): 1.6 h; AR Cmax (accumulation ratio, geometric mean) (PD patients, Regimen B 300 mg QD, Day 7): 0.428; AR AUC (accumulation ratio, geometric mean) (PD patients, Regimen B 300 mg QD, Day 7, tau 24 h): 0.351; maximum individual AUC(0-24) as % of the exposure limit in the protocol [2]: ~8.4%; maximum individual Cmax as % of the exposure limit in the protocol [2]: ~75.8%; Frel AUC(0-24) (PD patients, Regimen B 300 mg): 109%; Frel Cmax (PD patients, Regimen B 300 mg): 71.4%; maximum individual Cmax as % of the exposure limit in the protocol (PD patients, Regimen C 150 mg BID, Day 1, fasted): ~26.4%; maximum individual AUC as % of the exposure limit in the protocol (PD patients, Regimen C 150 mg BID, Day 1, fasted, AUC(0-12) vs limit based on AUC(0-24)): ~4.94%; AR Cmax (accumulation ratio, geometric mean) (PD patients, Regimen C 150 mg BID, Day 7): 0.333; AR AUC (accumulation ratio, geometric mean) (PD patients, Regimen C 150 mg BID, Day 7, tau 12 h): 0.299; safety and tolerability (in words) (PD patients, doses up to 300 mg): safe and well tolerated; concentration at 3 h (human, CSF, 300 mg, PD patients, multiple QD oral doses of 300 mg, fasted, 3 h post-dose on Day 5, read-out: CSF anle138b concentration (geometric mean)): 0.319 ng/mL; Kp at 3 h (human, CSF/plasma, PD patients, multiple QD oral doses of 300 mg, fasted, 3 h post-dose on Day 5, read-out: CSF/plasma anle138b concentration ratio (geometric mean)): 0.0024; Cmax (human, plasma, 150 mg, PD patients, Regimen A 150 mg QD (row prints fed, title fasted state), Day 1): ~462 ng/mL; Tmax (human, plasma, 150 mg, PD patients, Regimen A 150 mg QD (row prints fed, title fasted state), Day 1, read-out: Tmax (median)): 1.25 h; Tmax (human, plasma, 150 mg, PD patients, Regimen A 150 mg QD (row prints fed, title fasted state), Day 1, read-out: Tmax (range)): 1 to 1.5 h; AUC (human, plasma, 150 mg, PD patients, Regimen A 150 mg QD (row prints fed, title fasted state), Day 1, tau 24 h): ~1040 ng·h/mL; concentration at 24 h (human, plasma, 150 mg, PD patients, Regimen A 150 mg QD (row prints fed, title fasted state), Day 1, tau 24 h, read-out: Ctau (geometric mean)): 3.76 ng/mL; Cmax (human, plasma, 150 mg, PD patients, Regimen A 150 mg QD (row prints fed, title fasted state), Day 7): ~160 ng/mL; Tmax at 7 days (human, plasma, 150 mg, PD patients, Regimen A 150 mg QD (row prints fed, title fasted state), Day 7, read-out: Tmax (median)): 1 h; Tmax at 7 days (human, plasma, 150 mg, PD patients, Regimen A 150 mg QD (row prints fed, title fasted state), Day 7, read-out: Tmax (range)): 1 to 2 h; AUC (human, plasma, 150 mg, PD patients, Regimen A 150 mg QD (row prints fed, title fasted state), Day 7, tau 24 h): ~388 ng·h/mL; concentration at 24 h (human, plasma, 150 mg, PD patients, Regimen A 150 mg QD (row prints fed, title fasted state), Day 7, tau 24 h, read-out: Ctau (geometric mean)): 1.86 ng/mL; half-life at 7 days (human, plasma, 150 mg, PD patients, Regimen A 150 mg QD, Day 7, n = 2, read-out: T1/2, individual subject values (converted)): 17.1 h; half-life (human, plasma, 150 mg, PD patients, Regimen A 150 mg single dose on Day 9, fed state, n = 3, read-out: T1/2 (geometric mean) (converted)): 15.9 h; AUC(0-t) (human, plasma, 150 mg, PD patients, Regimen A 150 mg single dose on Day 9, fed state, read-out: AUC(0-24) (geometric mean)): 513 ng·h/mL; AUC(0-t) (human, plasma, 150 mg, PD patients, Regimen A 150 mg single dose on Day 9, fed state, read-out: AUC(0-last) (geometric mean)): 542 ng·h/mL; concentration at 24 h (human, plasma, 150 mg, PD patients, Regimen A 150 mg single dose on Day 9, fed state, read-out: C24 (geometric mean)): 1.87 ng/mL; Cmax (human, plasma, 150 mg, PD patients, Regimen A 150 mg single dose on Day 9, fed state): 167 ng/mL; Tmax (human, plasma, 150 mg, PD patients, Regimen A 150 mg single dose on Day 9, fed state, read-out: Tmax (median)): 3 h; Tmax (human, plasma, 150 mg, PD patients, Regimen A 150 mg single dose on Day 9, fed state, read-out: Tmax (range)): 1.5 to 4 h; Cmax (human, plasma, 150 mg, PD patients, Regimen C 150 mg BID, fast, Day 1): ~546 ng/mL; Tmax (human, plasma, 150 mg, PD patients, Regimen C 150 mg BID, fast, Day 1, read-out: Tmax (median)): 1 h; Tmax (human, plasma, 150 mg, PD patients, Regimen C 150 mg BID, fast, Day 1, read-out: Tmax (range)): 1 to 2 h; AUC (human, plasma, 150 mg, PD patients, Regimen C 150 mg BID, fast, Day 1, tau 12 h): ~993 ng·h/mL; concentration at 12 h (human, plasma, 150 mg, PD patients, Regimen C 150 mg BID, fast, Day 1, tau 12 h, read-out: Ctau (geometric mean)): 7.41 ng/mL; Cmax (human, plasma, 150 mg, PD patients, Regimen C 150 mg BID, fast, Day 7): ~182 ng/mL; half-life at 7 days (human, plasma, 150 mg, PD patients, Regimen C 150 mg BID, fast, Day 7, read-out: T1/2 (geometric mean) (converted)): 14.1 h; Tmax at 7 days (human, plasma, 150 mg, PD patients, Regimen C 150 mg BID, fast, Day 7, read-out: Tmax (median)): 1 h; Tmax at 7 days (human, plasma, 150 mg, PD patients, Regimen C 150 mg BID, fast, Day 7, read-out: Tmax (range)): 1 to 1.5 h; AUC (human, plasma, 150 mg, PD patients, Regimen C 150 mg BID, fast, Day 7, tau 12 h): ~297 ng·h/mL; concentration at 12 h (human, plasma, 150 mg, PD patients, Regimen C 150 mg BID, fast, Day 7, tau 12 h, read-out: Ctau (geometric mean)): 4.05 ng/mL; half-life (human, plasma, 150 mg, patient, 150 mg once daily for 7 consecutive days, fed conditions as printed, day 7, read-out: T½ of anle138b (clause 14) (converted)): ~11.7 h; Cmax (human, plasma, 300 mg, PD patients, Regimen B 300 mg QD (row prints fed, title fasted state), Day 1): ~933 ng/mL; Tmax (human, plasma, 300 mg, PD patients, Regimen B 300 mg QD (row prints fed, title fasted state), Day 1, read-out: Tmax (median)): 1.5 h; Tmax (human, plasma, 300 mg, PD patients, Regimen B 300 mg QD (row prints fed, title fasted state), Day 1, read-out: Tmax (range)): 1 to 4 h; AUC (human, plasma, 300 mg, PD patients, Regimen B 300 mg QD (row prints fed, title fasted state), Day 1, tau 24 h): ~2500 ng·h/mL; concentration at 24 h (human, plasma, 300 mg, PD patients, Regimen B 300 mg QD (row prints fed, title fasted state), Day 1, tau 24 h, read-out: Ctau (geometric mean)): 6.81 ng/mL; Cmax (human, plasma, 300 mg, PD patients, Regimen B 300 mg QD (row prints fed, title fasted state), Day 7): ~365 ng/mL; Tmax at 7 days (human, plasma, 300 mg, PD patients, Regimen B 300 mg QD (row prints fed, title fasted state), Day 7, read-out: Tmax (median)): 1.5 h; Tmax at 7 days (human, plasma, 300 mg, PD patients, Regimen B 300 mg QD (row prints fed, title fasted state), Day 7, read-out: Tmax (range)): 1 to 2 h; AUC (human, plasma, 300 mg, PD patients, Regimen B 300 mg QD (row prints fed, title fasted state), Day 7, tau 24 h): ~722 ng·h/mL; concentration at 24 h (human, plasma, 300 mg, PD patients, Regimen B 300 mg QD (row prints fed, title fasted state), Day 7, tau 24 h, read-out: Ctau (geometric mean)): 3.19 ng/mL; half-life at 7 days (human, plasma, 300 mg, PD patients, Regimen B 300 mg QD, Day 7, read-out: T1/2 (geometric mean) (converted)): 11.8 h; half-life (human, plasma, 300 mg, PD patients, Regimen B 300 mg single dose on Day 9, fed state, n = 4, read-out: T1/2 (geometric mean) (converted)): 13 h; AUC(0-t) (human, plasma, 300 mg, PD patients, Regimen B 300 mg single dose on Day 9, fed state, read-out: AUC(0-24) (geometric mean)): 795 ng·h/mL; AUC(0-t) (human, plasma, 300 mg, PD patients, Regimen B 300 mg single dose on Day 9, fed state, read-out: AUC(0-last) (geometric mean)): 831 ng·h/mL; concentration at 24 h (human, plasma, 300 mg, PD patients, Regimen B 300 mg single dose on Day 9, fed state, read-out: C24 (geometric mean)): 2.88 ng/mL; Cmax (human, plasma, 300 mg, PD patients, Regimen B 300 mg single dose on Day 9, fed state): 231 ng/mL; Tmax (human, plasma, 300 mg, PD patients, Regimen B 300 mg single dose on Day 9, fed state, read-out: Tmax (median)): 3 h; Tmax (human, plasma, 300 mg, PD patients, Regimen B 300 mg single dose on Day 9, fed state, read-out: Tmax (range)): 3 to 4 h; AUC(0-inf) (human, plasma, PD patients, Regimen A 150 mg single dose on Day 9, fed state, n = 3): 599 ng·h/mL; AUC(0-inf) (human, plasma, PD patients, Regimen B 300 mg single dose on Day 9, fed state, n = 4): 826 ng·h/mL; concentration at 3 h (human, plasma, 300 mg, PD patients, multiple QD oral doses of 300 mg, fasted, 3 h post-dose on Day 5, read-out: plasma anle138b concentration (geometric mean)): 133 ng/mL
